Patent US9233983B2, “Substituted hetero-bicyclic compounds, compositions and medicinal applications thereof” (ADVINUS THERAPEUTICS LIMITED, priority 2012, dated 2016)
Read-outs that look alike come from different tables or passages of the source.

Columns and labels:
[1] = molecular target: human Bruton's Tyrosine Kinase (Btk) (Homo sapiens (Human), UniProt Q06187); assay: Recombinant Human Bruton's Tyrosine Kinase (Btk) Inhibition Assay (HTRF KinEASE-TK); assay type: biochemical; conditions: read-out: hBTK IC50
human Bruton's Tyrosine Kinase (Btk), sequence (Q06187 whole entry): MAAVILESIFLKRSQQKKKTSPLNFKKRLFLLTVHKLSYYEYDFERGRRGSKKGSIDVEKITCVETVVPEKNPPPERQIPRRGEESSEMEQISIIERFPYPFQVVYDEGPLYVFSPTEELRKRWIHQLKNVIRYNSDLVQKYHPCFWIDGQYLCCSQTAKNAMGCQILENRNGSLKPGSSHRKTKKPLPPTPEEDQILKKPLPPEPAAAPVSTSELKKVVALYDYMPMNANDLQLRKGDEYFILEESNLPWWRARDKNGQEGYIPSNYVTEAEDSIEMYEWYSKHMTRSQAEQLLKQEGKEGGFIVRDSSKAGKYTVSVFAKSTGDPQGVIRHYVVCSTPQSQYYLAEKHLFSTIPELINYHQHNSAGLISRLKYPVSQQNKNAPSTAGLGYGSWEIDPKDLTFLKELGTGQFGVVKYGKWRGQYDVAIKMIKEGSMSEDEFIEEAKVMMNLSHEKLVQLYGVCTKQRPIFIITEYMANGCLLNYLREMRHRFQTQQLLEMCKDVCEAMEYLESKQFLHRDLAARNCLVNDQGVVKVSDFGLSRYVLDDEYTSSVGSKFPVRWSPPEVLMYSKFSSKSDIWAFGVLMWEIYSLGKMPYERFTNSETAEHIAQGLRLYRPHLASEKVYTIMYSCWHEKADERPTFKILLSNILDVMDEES

mouse splenocytes = assay: Inhibition of B Cell Activation as Measured by CD69 Expression in Mouse Splenocytes; assay type: cell-based; conditions: Splenocyte
Description: Inhibition of B Cell Activation as Measured by CD69 Expression in Mouse Splenocytes:
To test the effect of BTK inhibitors in suppressing B-cell receptor (BCR) mediated activation of B cells, we developed a flow cytometry based assay to analyze CD69 expression in B cell population among total splenocyte from the mouse. […] Finally, cell were cultured in RPMI medium with 10% FBS.
Test compounds were diluted half log starting from 2 mM in 100% DMSO (200×). 1×10^5 splenocytes were incubated with 1 uL of diluted test compounds in 200 uL culture medium in a U-bottom 96 well plate (Greiner) at 37° C. with 5% CO2 for 30 mins. Control wells received 1 uL of 100% DMSO without any compound. The cells were stimulated with 3 ug/mL goat anti-mouse IgM (Sigma, cat#M8644) and incubated for 18-20 hrs. […] Then the cells were washed 3 times with PBS with 1% FBS and analyzed by Guava Easycyte Mini flow cytometer system (Millipore). Flow cytometry data were analyzed using Weasel software (WEHI, Melbourne). First B cells were gated using CD19 markers. Then expression of CD69 was analyzed as percentage of CD69+ve cells within CD19. Percent activity for each data point was calculated using following formula: […]
Percentage activity was fit using sigmoid dose response with variable slope logistic equation in Graph-pad Prism 5 software to determine inhibition constant 50 (IC50).

[2] = 20 ng/ml rhBtk, 77 μM ATP (KM), 1 μM TK-Biotin substrate, 90 min
[3] = C57/BL6 splenocytes, 3 ug/mL goat anti-mouse IgM, 18-20 hrs, CD69+ve cells within CD19, read-out: Mouse spleenocyte IC50

Compound	IC50 [1, 2] [nM]	IC50 (mouse splenocytes; [3]) [nM]	IC50 [1] [nM]	IC50 (mouse splenocytes; Mus musculus, read-out: Mouse spleenocyte IC50 (nM)) [nM]
Cc1c(-c2ncnc3[nH]c(-c4ccc(CN5CCNCC5)cc4)cc23)cccc1N1CCOc2cc(C3CC3)ccc2C1=O [Example A-1, 8-cyclopropyl-4-[2-methyl-3-[6-[4-(piperazin-1-ylmethyl)phenyl]-7H-pyrrolo[2,3-d]pyrimidin-4-yl]phenyl]-2,3-dihydro-1,4-benzoxazepin-5-one]	7	99	–	–
Cc1c(-c2ncnc3[nH]c(-c4ccc(CN5CCNCC5)cc4)cc23)cccc1N1CCc2cc(C3CC3)ccc2C1=O [Example A-2, 6-cyclopropyl-2-[2-methyl-3-[6-[4-(piperazin-1-ylmethyl)phenyl]-7H-pyrrolo[2,3-d]pyrimidin-4-yl]phenyl]-3,4-dihydroisoquinolin-1-one]	7	165	–	–
CN1CCN(Cc2ccc(-c3cc4c(-c5cccc(N6CCOc7cc(C8CC8)ccc7C6=O)c5CO)ncnc4[nH]3)cc2)CC1 [Example B-1, 8-cyclopropyl-4-[2-(hydroxymethyl)-3-[6-[4-[(4-methylpiperazin-1-yl)methyl]phenyl]-7H-pyrrolo[2,3-d]pyrimidin-4-yl]phenyl]-2,3-dihydro-1,4-benzoxazepin-5-one]	6	40	–	–
Cc1c(-c2ncnc3[nH]c(-c4ccc(CN5CCN(C)CC5)cc4)cc23)cccc1N1CCOc2cc(C3CC3)ccc2C1=O [Example B-2]	31	200	–	–
O=C1c2ccc(C3CC3)cc2OCCN1c1cccc(-c2ncnc3[nH]c(-c4ccc(CN5CCOCC5)cc4)cc23)c1CO [Example B-5, 8-cyclopropyl-4-[2-(hydroxymethyl)-3-[6-[4-(morpholinomethyl)phenyl]-7H-pyrrolo[2,3-d]pyrimidin-4-yl]phenyl]-2,3-dihydro-l,4-benzoxazepin-5-one]	8	60	–	–
CC1(O)CCN(Cc2ccc(-c3cc4c(-c5cccc(N6CCOc7cc(C8CC8)ccc7C6=O)c5CO)ncnc4[nH]3)cc2)CC1 [Example B-6, 8-cyclopropyl-4-[2-(hydroxymethyl)-3-[6-[4-[(4-hydroxy-4-methyl-1-piperidyl)methyl]phenyl]-7H-pyrrolo[2,3-d]pyrimidin-4-yl]phenyl]-2,3-dihydro-1,4-benzoxazepin-5-one]	–	–	7	81
CCN1CCN(Cc2ccc(-c3cc4c(-c5cccc(N6CCOc7cc(C8CC8)ccc7C6=O)c5CO)ncnc4[nH]3)cc2)CC1 [Example B-7, 8-cyclopropyl-4-[3-[6-[4-[(4-ethylpiperazin-1-yl)methyl]phenyl]-7H-pyrrolo[2,3-d]pyrimidin-4-yl]-2-(hydroxymethyl)phenyl]-2,3-dihydro-1,4-benzoxazepin-5-one]	6	52	–	–
CN1CCN(Cc2ccc(-c3cc4c(-c5cccc(-n6ncc7cc(C8CC8)ccc7c6=O)c5CO)ncnc4[nH]3)cc2)CC1 [Example B-10, 6-cyclopropyl-2-[2-(hydroxymethyl)-3-[6-[4-[(4-methylpiperazin-1-yl)methyl]phenyl]-7H-pyrrolo[2,3-d]pyrimidin-4-yl]phenyl]phthalazin-1-one]	2	20	–	–
CN1CCN(Cc2ccc(-c3cc4c(-c5cccc(N6CCOc7cc(C8CC8)ccc7C6=O)c5CO)ccnc4[nH]3)cc2)CC1 [Example B-13, 8-cyclopropyl-4-[2-(hydroxymethyl)-3-[2-[4-[(4-methylpiperazin-1-yl)methyl]phenyl]-1H-pyrrolo[2,3-b]pyridin-4-yl]phenyl]-2,3-dihydro-1,4-benzoxazepin-5-one]	3	9	–	–
N#CC1CCN(Cc2ccc(-c3cc4c(-c5cccc(N6CCOc7cc(C8CC8)ccc7C6=O)c5CO)ncnc4[nH]3)cc2)CC1 [Example B-14, 1-[[4-[4-[3-(8-cyclopropyl-5-oxo-2,3-dihydro-1,4-benzoxazepin-4-yl)-2-(hydroxymethyl)phenyl]-7H-pyrrolo[2,3-d]pyrimidin-6-yl]phenyl]methyl]piperidine-4-carbonitrile]	7	96	–	–
CCN1CCN(Cc2ccc(-c3cc4c(-c5cccc(N6CCOc7cc(C8CC8)ccc7C6=O)c5CO)ccnc4[nH]3)cc2)CC1 [Example B-16, 8-cyclopropyl-4-[3-[2-[4-[(4-ethylpiperazin-1-yl)methyl]phenyl]-1H-pyrrolo[2,3-b]pyridin-4-yl]-2-(hydroxymethyl)phenyl]-2,3-dihydro-1,4-benzoxazepin-5-one]	4	17	–	–
CC1(O)CN(Cc2ccc(-c3cc4c(-c5cccc(N6CCOc7cc(C8CC8)ccc7C6=O)c5CO)ccnc4[nH]3)cc2)C1 [Example B-17]	6	74	–	–
CN1CCN(Cc2ccc(-c3cc4c(-c5cccc(N6CCOc7cc(C8CC8)ccc7C6=O)c5CO)ccnc4[nH]3)cn2)CC1 [Example B-20, 8-cyclopropyl-4-[2-(hydroxymethyl)-3-[2-[6-[(4-methylpiperazin-1-yl)methyl]-3-pyridyl]-1H-pyrrolo[2,3-b]pyridin-4-yl]phenyl]-2,3-dihydro-1,4-benzoxazepin-5-one]	7	67	–	–
Cc1c(-c2ncnc3[nH]c(-c4ccc(CN5CCC(O)CC5)cc4)cc23)cccc1N1CCc2cc(C3CC3)ccc2C1=O [Example B-22, 6-cyclopropyl-2-[3-[6-[4-[(4-hydroxy-1-piperidyl)methyl]phenyl]-7H-pyrrolo[2,3-d]pyrimidin-4-yl]-2-methyl-phenyl]-3,4-dihydroisoquinolin-1-one]	32.5	137	–	–
CN1CCN(c2ccc(-c3cc4c(-c5cccc(-n6ccc7cc(C8CC8)ccc7c6=O)c5CO)ncnc4[nH]3)cc2)CC1 [Example C-1, 6-cyclopropyl-2-[2-(hydroxymethyl)-3-[6-[4-(4-methylpiperazin-1-yl)phenyl]-7H-pyrrolo[2,3-d]pyrimidin-4-yl]phenyl]isoquinolin-1-one]	5	9	–	–
CN1CCN(c2ccc(-c3cc4c(-c5cccc(N6CCOc7cc(C8CC8)ccc7C6=O)c5CO)ncnc4[nH]3)cc2)CC1 [Example C-2, 8-cyclopropyl-4-[2-(hydroxymethyl)-3-[6-[4-(4-methylpiperazin-1-yl)phenyl]-7H-pyrrolo[2,3-d]pyrimidin-4-yl]phenyl]-2,3-dihydro-1,4-benzoxazepin-5-one]	12	36	–	–
CCN1CC(n2cc(-c3cc4c(-c5cccc(N6CCOc7cc(C8CC8)ccc7C6=O)c5CO)ccnc4[nH]3)cn2)C1 [Example D-10, 8-cyclopropyl-4-[3-[2-[1-(1-ethylazetidin-3-yl)pyrazol-4-yl]-1H-pyrrolo[2,3-b]pyridin-4-yl]-2-(hydroxymethyl)phenyl]-2,3-dihydro-1,4-benzoxazepin-5-one]	–	76	–	–
O=C(N1CC=C(c2cc3c(-c4cccc(N5CCOc6cc(C7CC7)cc(F)c6C5=O)c4CO)ccnc3[nH]2)CC1)N1CCC1 [Example P-13, 4-[3-[2-[1-(azetidine-1-carbonyl)-3,6-dihydro-2H-pyridin-4-yl]-1H-pyrrolo[2,3-b]pyridin-4-yl]-2-(hydroxymethyl)phenyl]-8-cyclopropyl-6-fluoro-2,3-dihydro-1,4-benzoxazepin-5-one]	1	–	–	–
O=C1c2c(F)cc(C3CC3)cc2OCCN1c1cc(F)cc(-c2ccnc3[nH]c(C4=CCN(C5COC5)CC4)cc23)c1CO [Example P-16, 8-cyclopropyl-6-fluoro-4-[5-fluoro-2-(hydroxymethyl)-3-[2-[1-(oxetan-3-yl)-3,6-dihydro-2H-pyridin-4-yl]-1H-pyrrolo[2,3-b]pyridin-4-yl]phenyl]-2,3-dihydro-1,4-benzoxazepin-5-one]	–	9	–	–
CS(=O)(=O)N1CC=C(c2cc3c(-c4ccnc(N5CCOc6cc(C7CC7)cc(F)c6C5=O)c4CO)ccnc3[nH]2)CC1 [Example P-25, 8-cyclopropyl-6-fluoro-4-[3-(hydroxymethyl)-4-[2-(1-methylsulfonyl-3,6-dihydro-2H-pyridin-4-yl)-1H-pyrrolo[2,3-b]pyridin-4-yl]-2-pyridyl]-2,3-dihydro-1,4-benzoxazepin-5-one]	618	–	–	–
O=C1c2c(F)cc(C3CC3)cc2OCCN1c1cccc(-c2ccnc3[nH]c(-c4ccc(OCCN5CCOCC5)cn4)cc23)c1CO [Example Q-1, 8-cyclopropyl-6-fluoro-4-[2-(hydroxymethyl)-3-[2-[5-(2-morpholinoethoxy)-2-pyridyl]-1H-pyrrolo[2,3-b]pyridin-4-yl]phenyl]-2,3-dihydro-1,4-benzoxazepin-5-one]	2.9	–	–	–
O=C1c2c(F)cc(C3CC3)cc2OCCN1c1cccc(-c2ccnc3[nH]c(-c4ccc(OCCN5CCC5)cn4)cc23)c1CO [Example Q-2, 4-[3-[2-[5-[2-(azetidin-1-yl)ethoxy]-2-pyridyl]-1H-pyrrolo[2,3-b]pyridin-4-yl]-2-(hydroxymethyl)phenyl]-8-cyclopropyl-6-fluoro-2,3-dihydro-1,4-benzoxazepin-5-one]	3.1	–	–	–
CN1CCN(c2ccc(-c3cc4c(-c5cccc(N6CCOc7cc(C8CC8)ccc7C6=O)c5CO)ccnc4[nH]3)nc2)CC1 [Example S-3, 8-cyclopropyl-4-[2-(hydroxymethyl)-3-[2-[5-(4-methylpiperazin-1-yl)-2-pyridyl]-1H-pyrrolo[2,3-b]pyridin-4-yl]phenyl]-2,3-dihydro-1,4-benzoxazepin-5-one]	3	–	–	–
